Where no end group is shown, it is not given here.
Key:
[1] = biological target: HLA-DQ8 (Homo sapiens, UniProt P01909+P01920, A209T/A45G/C70Q/D89A/DUP78-78/E183D/E77G/F237L/G63E/H199R/I129T/K197E/L178F/L74F/L98V/Q57E/Q76R/S185I/S97I/T217I/T49S/V73L/Y58L); assay: MHC class II binding competition assay with radiolabeled probe peptide; details: competition with MHC class II bound radiolabeled probe peptide, purified MHC, 2-4 days incubation
[2] = biological target: T1, HLA-DQ7.5 (Homo sapiens, UniProt P01909+P01920); assay: as above; details: competition with MHC class II bound radiolabeled probe peptide, purified MHC, 2-4 days incubation
T1 construct: made in house
Method: In-vitro testing of modified gluten peptides was performed by a Major histocompatibility complex (MHC class II) binding assay (Sidney J. et. al. Current protocols in immunology 100.1 (2013)). Briefly, competition assays using different concentrations of WT and modified low molecular weight glutenin subunit (LMW-GS) peptides were conducted by diluting the peptides in NP40 buffer, and incubation for 2-4 days with purified MHC and a radiolabeled known MHC binding peptide (peptide probe). MHC class II molecules were purified by affinity chromatography, and peptides were radiolabeled using the chloramine T method. After the incubation period, the bound and unbound radiolabeled species were separated, and their relative amounts were determined by either size-exclusion gel-filtration chromatography or monoclonal antibody capture of MHC. The percentage of bound radioactivity was then determined. For each modified peptide, IC50 of WT and modified peptide were calculated. The known gluten peptide epitopes were analyzed for MHC binding as a positive control, both in the non-deamidated and in the deamidated form.
Tables I and II list the measured IC50 values from competition assays between the specified peptides and an MHC class II bound probe peptide.

[3] = biological target: HLA-DQ2.5 (Homo sapiens, UniProt P01909+P01920, A45G/A70V/D89A/E106A/E77G/E98D/H199R/L107V/N214S/P84L/P87L/T103K/T109R/T172A/T60S/V78E/V99I/Y58L/Y62S/Y69I/Y79F); assay: as above; details: competition with MHC class II bound radiolabeled probe peptide, purified MHC, 2-4 days incubation
[4] = biological target: HLA-DQ2.2 (Homo sapiens, UniProt P01909+P01920, A45G/A70V/C70K/D167G/D89A/E106A/E183D/E77G/E98D/F237L/F77L/G63E/H199R/I129T/K197E/L107V/L178F/L74F/N214S/P84L/P87L/Q57E/Q76R/R75H/S185I/S97I/T103K/T109R/T172A/T60S/V73L/V78E/V99I/Y48F/Y58L/Y62S/Y69I/Y79F); assay: as above; details: competition with MHC class II bound radiolabeled probe peptide, purified MHC, 2-4 days incubation
[5] = biological target: HLA-DQ8 (human); assay: competition with radiolabeled probe peptide, purified MHC class II
[6] = biological target: HLA-DQ2.2 (human); assay: as above
[7] = biological target: HLA-DQ2.5 (human); assay: as above

Molecule | IC50 [1] [µM] | IC50 [2] [µM] | IC50 [3] [µM] | IC50 [4] [µM] | IC50 [5] [µM] | IC50 [6] [µM] | IC50 [7] [µM]
GPPFSKQTEPVISQQ [SEQ ID NO: 186] | 38.2 | > 40 | > 40 | > 40 | – | – | –
QGPPFSKQTQPVIPQ [SEQ ID NO: 72] | > 40 | > 40 | > 40 | > 40 | – | – | –
QPPDSHQQHSPGSQQ [SEQ ID NO: 84] | > 40 | > 40 | > 40 | > 40 | – | – | –
QPPSSEQQHSPPSQQ [SEQ ID NO: 81] | 31.9 | > 40 | > 40 | 39.8 | – | – | –
QPSFSRQQKQPQSQQ [SEQ ID NO: 86] | > 40 | > 40 | > 40 | > 40 | – | – | –
QQPAFSRQHQPSLPQ [SEQ ID NO: 73] | – | > 40 | – | – | – | – | –
QQPFPEQQRSQFSQQ [SEQ ID NO: 85] | 35.8 | > 40 | > 40 | > 40 | – | – | –
QQPPDSHQEHSPGPQ [SEQ ID NO: 187] | > 40 | > 40 | > 40 | > 40 | – | – | –
QQPPFPRQHQQFPQQ [SEQ ID NO: 74] | > 40 | > 40 | > 40 | > 40 | – | – | –
QQPPFSHQRPPFSQQ [SEQ ID NO: 70] | 39.1 | > 40 | > 40 | > 40 | – | – | –
QQPPFSKQEQQQPIL [SEQ ID NO: 71] | 29.8 | > 40 | > 40 | > 40 | – | – | –
QQPPSSEQEHSPPSQ [SEQ ID NO: 79] | – | > 40 | – | – | – | – | –
QQSPFPEQEQQHQQL [SEQ ID NO: 183] | 39.9 | > 40 | 32.4 | > 40 | – | – | –
QQSPFSRQEKSPFSQ [SEQ ID NO: 78] | > 40 | > 40 | > 40 | > 40 | – | – | –
QSPFSRQQKSPFSQQ [SEQ ID NO: 80] | > 40 | > 40 | > 40 | > 40 | – | – | –
QPPSSEQQHSPPSQQ [… (SEQ ID NO: 81)] | – | – | – | – | 31.9 | 39.8 | –
QQPFPEQQRSQFSQQ [… (SEQ ID NO: 85)] | – | – | – | – | 35.8 | – | –
QPFFSHQQRSGFSQQ [… (SEQ ID NO: 83)] | – | – | – | – | 39.2 | – | –
QSPFPEQQEQHQQLQ [… (SEQ ID NO: 185)] | – | – | – | – | 37.9 | – | –
GPPFSKQTEPVISQQ [… (SEQ ID NO: 186)] | – | – | – | – | 38.2 | – | –
QQPPFSKQEQQQPIL [… (SEQ ID NO: 71)] | – | – | – | – | 29.8 | – | –
QQPAFSRQHQPSLPQ [… (SEQ ID NO: 73)] | – | – | – | – | – | – | 30.4
QPPFSEQQESPFSQQ [… (SEQ ID NO: 69)] | – | – | – | – | 1.14 | – | 0.158
QQPPFSHQRPPFSQQ [… (SEQ ID NO: 70)] | – | – | – | – | 39.1 | – | –
QQPPFWQHQPPFSQQ [… (SEQ ID NO: 76)] | – | – | – | – | – | – | 37.4
QQPPFSEQEQPSSQQ [… (SEQ ID NO: 77)] | – | – | – | – | 31.5 | – | 32.3
QQSPFPEQEQQHQQL [… (SEQ ID NO: 183)] | – | – | – | – | 39.9 | – | 32.4

Source: patent publication US20250074955A1, “MODIFIED LOW MOLECULAR WEIGHT GLUTENIN SUBUNIT AND USES THEREOF” (Ukko Inc., priority 2022, published 2025)
